{
  "source": "patent US10837001B2",
  "about": "“Cardiomyocyte maturation platform” (The Regents of the University of California, priority 2016, dated 2020)",
  "key": {"[1]": {"system": "iPSC-derived CM", "experiment": "qPCR of maturation markers with EC-conditioned medium / EC co-culture and ET or notch inhibition", "format": "cell-based, human", "details": "20 μM, EC and CM co-cultured, 7 days", "procedure": "EC and iPSC-derived CMs were plated onto Matrigel Growth Factor Reduced (BD) coated dishes. Cells were fed with RPMI media supplemented with B27 (Life Technologies) and Endothelial Cell Growth Supplement (ECGS; BD Biosciences) every 2-3 days. EC-conditioned medium was collected after 1-3 days of EC growth. Endothelin inhibition was achieved by adding 10 nM PD145065 inhibitor (EMD Millipore) and notch inhibition with 20 μM DAPT (Sigma) at every media change. Cells were fed on days 1 and 4 and then harvested after 7 days.\nRNA was extracted using TRIzol (Life Technologies) according to manufacturer's instructions. Three micrograms of RNA was used to generate cDNA using the iSCRIPT cDNA Synthesis Kit (Bio-Rad). The reaction mix included SYBR green chemistry and primers generated by IDT Technologies. The samples were analyzed using an iQ5 Real Time PCR Detection System (Bio-Rad). The control sample, compared to EC/iPSC-derived CM co-culture, consisted of a mix of equal parts EC and iPSC-derived CM RNA that were isolated separately. (n=3; *p<0.05 **p<0.01 ***p<0.001, Student's t-test)"}, "[2]": {"system": "iPSC-derived CM", "details": "endothelial cells/cardiomyocyte co-culture; cited from earlier work"}, "[3]": {"system": "iPSC-derived cardiomyocytes", "experiment": "Pharmacological treatment of iPSC-derived cardiomyocytes (beat rate, calcium transient)", "format": "cell-based, human", "procedure": "The iPSC-derived cardiomyocytes have been engineered to express a calcium indicator (GCaMP6f reporter) that emits fluorescence in the presence of cytosolic calcium. Calcium transients were measured using an epifluorescent microscope with an inverted 10× objective (IX70 Olympus, Tokyo, Japan). Images were captured using a SPOT Idea 3.0 megapixel color fluorescent camera and SPOT acquisition software (SPOT Imaging Solutions, Sterling Heights, Mich.). The cells were placed in a 37° C. heated stage during imaging. The video was captured at 33 frames/second with 8×8 binning. ImageJ was used to process and extract the temporal fluorescence intensity of the acquired video data. Subsequent data were analyzed using MATLAB software (MathWorks, Torrance, Calif.). A customized algorithm determined the troughs and peaks of each calcium wave and measured the amplitude, max upslope, max downslope, time to 50% decay, and beat rate. Additional measurements included the effect of caffeine on the slope of amplitude change. Baseline and drug recordings were taken before and after 10 min incubation with the drug(s) on the 37° C. stage. All recordings were taken over 1 min. The order of the β-adrenergic drug treatments was baseline, 1 μM isoproterenol (Sigma #16504), and 1 μM Isoproterenol+10 μM Propranolol (Sigma # P0884). The effect of caffeine (Tocris #2793) on calcium signaling was assessed at a final concentration of 20 mM. The video recordings were acquired before and during the addition of caffeine."}},
  "data": [
    {"smiles": "C[C@H](NC(=O)Cc1cc(F)cc(F)c1)C(=O)N[C@H](C(=O)OC(C)(C)C)c1ccccc1", "note": "[DAPT]", "values": [
      {"measurement": "Maturation markers Junctin, SERCA2a, CaV1.2", "setting": "[1]", "result": "decrease"},
      {"measurement": "cTNT expression", "setting": "[2]", "result": "decrease"}
    ]},
    {"smiles": "Cn1c(=O)c2c(ncn2C)n(C)c1=O", "note": "[caffeine]", "values": [
      {"measurement": "Calcium release", "setting": "[3]; 20 mM, 3D culture vs 2D", "result": "more rapid release of calcium"},
      {"measurement": "Time to maximum calcium concentration", "setting": "[3]; 20 mM, 3D culture vs 2D", "result": "quicker"},
      {"measurement": "Upslope (velocity of calcium release)", "setting": "[3]; 20 mM, 3D culture vs 2D", "result": "steeper"}
    ]},
    {"smiles": "CC(C)NCC(O)c1ccc(O)c(O)c1", "note": "(centres unmarked) [isoproterenol]", "values": [
      {"measurement": "Beat rate", "setting": "[3]; 1 μM, 10 min incubation", "result": "increased their beat rate"},
      {"measurement": "Beat rate", "setting": "[3]; cells cultured in 3D compared to cells in 2D culture", "result": "increased beat rate"}
    ]},
    {"smiles": "CC(C)NCC(O)COc1cccc2ccccc12", "note": "(centres unmarked) [propranolol]", "values": [
      {"measurement": "Beat rate", "setting": "[3]; 10 μM added after 1 μM isoproterenol", "result": "decreased to baseline levels"}
    ]}
  ]
}
